We go through 30 compounds from patent US10385031B2, “Substituted piperazines as selective HDAC1,2 inhibitors” (Regenacy Pharmaceuticals, LLC, priority 2016, dated 2019).

The nature of data set [1]: Rat pharmacokinetics, cassette dosing (IV and PO). Format: in vivo. The settings on record: rat, plasma, male SD rats; for bioavailability: 5 mg/kg, oral AUC to IV AUC, dose adjusted; for IV clearance: IV 1 mg/kg; for AUC / Cmax / half-life: PO 5 mg/kg; for half-life: read-out: PO T½ (converted). The method, then:
Male SD rats were fasted overnight. Compounds of the invention were dissolved in dimethyl acetamide at 10 times the final concentration, then Solutol HS 15 (BASF) was added to a final concentration of 10%. Finally 80% saline was added and vortexed to achieve a clear solution. For the IV dosing three animals were injected via the foot dorsal vein with 1 mg/kg compound. For the PO dosing 5 mg/kg of compound was delivered by oral gavage. Blood was collected via the tail vein into K2EDTA tubes at 5 minutes, 15 minutes, 30 minutes, 1 hour, 2 hours, 4 hours, 8 hours and 24 hours after dosing. The blood was centrifuged at 2000 g for 5 minutes at 4° C. to obtain plasma. The plasma was extracted with acetonitrile and the level of compound was analyzed by LC/MS/MS. The level of compound in plasma was calculated from a standard curve in rat plasma. The IV clearance (L/h/kg) and area under the curve (h*ng/mL) were calculated using WinNonLin software. The dose adjusted area under the curve for the IV and oral dosing were used to calculate the oral bioavailability.
Pharmacokinetic properties were assessed in a rat cassette dosing experiment. The IV clearance (IV Clr.) is in units of L/hr/kg. The oral maximum plasma concentration (PO Cmax) is in units of ng/ml. The oral plasma half-life (PO T½) is in units of hours. The oral area under the curve (PO AUC) is in units of hours*ng/ml. The fraction absorbed by the oral route (F %) is a percentage of the oral area under the curve to the IV area under the curve, dose adjusted.

The next data set has as its target HDAC1 (Homo sapiens (Human), UniProt Q13547). In words: HDAC enzyme assay HDAC1. Format: biochemical.
For the next data set, the target named is HDAC2 (Homo sapiens (Human), UniProt Q92769). Description: HDAC enzyme assay HDAC2. The format is biochemical. On the procedure: Compounds for testing were diluted in DMSO to 50 fold the final concentration and a ten-point three-fold dilution series was made. The compounds were diluted in assay buffer (50 mM HEPES, pH 7.4, 100 mM KCl, 0.001% Tween-20, 0.05% BSA, 20 μM TCEP) to 6-fold their final concentration. The HDAC enzymes (purchased from BPS Biosciences) were diluted to 1.5-fold their final concentration in assay buffer. The tripeptide substrate and trypsin at 0.05 μM final concentration were diluted in assay buffer at 6-fold their final concentration. The final enzyme concentrations used in these assays were 3.3 ng/ml (HDAC1), 0.2 ng/ml (HDAC2) and 0.08 ng/ml (HDAC3). The final substrate concentrations used were 16 μM (HDAC1), 10 μM (HDAC2) and 17 μM (HDAC3).
Chain of HDAC2 (Q92769 whole entry): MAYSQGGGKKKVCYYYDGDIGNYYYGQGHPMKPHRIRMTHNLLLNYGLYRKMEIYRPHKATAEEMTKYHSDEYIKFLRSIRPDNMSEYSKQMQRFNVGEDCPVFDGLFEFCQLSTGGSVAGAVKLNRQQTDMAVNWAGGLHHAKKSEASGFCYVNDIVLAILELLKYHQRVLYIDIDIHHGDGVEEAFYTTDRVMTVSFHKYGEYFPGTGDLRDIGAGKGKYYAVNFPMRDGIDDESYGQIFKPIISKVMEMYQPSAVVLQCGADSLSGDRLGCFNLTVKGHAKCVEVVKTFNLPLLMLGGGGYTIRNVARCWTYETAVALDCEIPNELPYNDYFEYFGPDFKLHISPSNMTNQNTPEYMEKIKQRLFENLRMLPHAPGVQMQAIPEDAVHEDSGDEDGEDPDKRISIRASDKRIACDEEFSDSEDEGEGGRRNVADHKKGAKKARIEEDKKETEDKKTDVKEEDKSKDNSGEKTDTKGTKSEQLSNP
Five μl of compounds and 20 μl of enzyme were added to wells of a black, opaque 384 well plate in duplicate. Enzyme and compound were incubated together at room temperature for 10 minutes. Five μl of substrate was added to each well, the plate was shaken for 60 seconds and placed into a Victor 2 microtiter plate reader. The development of fluorescence was monitored for 60 min and the linear rate of the reaction was calculated. The IC50 was determined using Graph Pad Prism by a four parameter curve fit.

In the next data set the target is HDAC3 (Homo sapiens (Human), UniProt O15379). Description: HDAC enzyme assay HDAC3. The format is biochemical. The method, then: Compounds for testing were diluted in DMSO to 50 fold the final concentration and a ten-point three-fold dilution series was made. The compounds were diluted in assay buffer (50 mM HEPES, pH 7.4, 100 mM KCl, 0.001% Tween-20, 0.05% BSA, 20 μM TCEP) to 6-fold their final concentration. The HDAC enzymes (purchased from BPS Biosciences) were diluted to 1.5-fold their final concentration in assay buffer. The tripeptide substrate and trypsin at 0.05 μM final concentration were diluted in assay buffer at 6-fold their final concentration. The final enzyme concentrations used in these assays were 3.3 ng/ml (HDAC1), 0.2 ng/ml (HDAC2) and 0.08 ng/ml (HDAC3). The final substrate concentrations used were 16 μM (HDAC1), 10 μM (HDAC2) and 17 μM (HDAC3). Five μl of compounds and 20 μl of enzyme were added to wells of a black, opaque 384 well plate in duplicate. Enzyme and compound were incubated together at room temperature for 10 minutes. Five μl of substrate was added to each well, the plate was shaken for 60 seconds and placed into a Victor 2 microtiter plate reader. The development of fluorescence was monitored for 60 min and the linear rate of the reaction was calculated. The IC50 was determined using Graph Pad Prism by a four parameter curve fit. In Table 4 below, letter designations are defined as follows: […]
Chain of HDAC3 (O15379 whole entry): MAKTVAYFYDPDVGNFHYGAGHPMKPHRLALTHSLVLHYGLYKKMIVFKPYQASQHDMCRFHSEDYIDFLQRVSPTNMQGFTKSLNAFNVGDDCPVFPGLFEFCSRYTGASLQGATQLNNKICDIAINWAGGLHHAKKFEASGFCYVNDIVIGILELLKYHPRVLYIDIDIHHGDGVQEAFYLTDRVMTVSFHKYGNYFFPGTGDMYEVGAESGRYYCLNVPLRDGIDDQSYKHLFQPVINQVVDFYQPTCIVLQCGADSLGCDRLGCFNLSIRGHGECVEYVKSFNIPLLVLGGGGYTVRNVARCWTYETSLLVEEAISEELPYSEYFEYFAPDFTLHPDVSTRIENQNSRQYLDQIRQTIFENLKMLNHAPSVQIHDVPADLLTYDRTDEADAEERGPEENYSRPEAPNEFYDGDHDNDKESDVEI
Chain of HDAC3 (Q9Y618 395-489 partner): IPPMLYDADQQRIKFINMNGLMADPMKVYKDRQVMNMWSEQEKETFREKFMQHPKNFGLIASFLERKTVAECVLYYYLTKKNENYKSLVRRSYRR

Molecules are shown by their SMILES.

Chain of HDAC1 (Q13547 whole entry): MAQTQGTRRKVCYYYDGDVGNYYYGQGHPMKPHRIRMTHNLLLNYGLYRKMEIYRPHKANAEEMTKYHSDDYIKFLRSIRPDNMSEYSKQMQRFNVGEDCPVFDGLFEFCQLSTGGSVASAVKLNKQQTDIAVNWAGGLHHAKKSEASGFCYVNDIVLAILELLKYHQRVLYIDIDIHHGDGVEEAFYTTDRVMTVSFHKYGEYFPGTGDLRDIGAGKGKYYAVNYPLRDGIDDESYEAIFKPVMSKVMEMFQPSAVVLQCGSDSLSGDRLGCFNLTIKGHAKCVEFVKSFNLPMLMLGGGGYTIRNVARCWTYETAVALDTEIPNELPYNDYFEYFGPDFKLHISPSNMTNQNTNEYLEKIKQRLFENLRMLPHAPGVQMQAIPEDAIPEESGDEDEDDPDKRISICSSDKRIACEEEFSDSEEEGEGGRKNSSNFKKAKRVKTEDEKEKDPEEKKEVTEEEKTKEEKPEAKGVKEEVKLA

The term AUC denotes concentration integrated over time. The low end stands for less exposure, the high end for more exposure. The term Cmax denotes the maximum level reached in the sampled fluid or tissue. Turning to `Nc1ccc(-c2cccs2)cc1NC(=O)c1cnc2cc(N3CCNCC3)ccc2c1` [Compound 023], in data set [1], the bioavailability was 51.2%, the IV clearance was 6 mL/min/kg, the AUC is 6370 ng·h/mL and the peak level (Cmax) was 664 ng/mL. Further, the half-life in data set [1] was 8.5 h.
What is called IC50 is the concentration that inhibits the measured activity by half. A lower IC50 goes with inhibition by little substance. Consider `Nc1ccc(-c2ccccc2)cc1NC(=O)c1cc(N2CCNCC2)cs1` [Compound 069], for which the IC50 against HDAC1 is 10 to 500 nM; on HDAC2, 10 to 500 nM; against HDAC3, more than 500 nM.
On to `Cc1nc(C(=O)Nc2cc(-c3ccoc3)ccc2N)sc1N1CCNCC1` [Compound 043], for which the IC50 against HDAC1 is less than 10 nM; on HDAC2, 10 to 500 nM; at HDAC3, more than 500 nM.
For `CN1CCN(c2cnc(C(=O)Nc3cc(-c4ccco4)ccc3N)s2)CC1` [Compound 054], the figures for the IC50 on HDAC1, against HDAC2 and against HDAC3 were less than 10 nM, 10 to 500 nM and 10 to 500 nM, respectively.
As to `Nc1ccc(-c2ccco2)cc1NC(=O)c1ncc(N2CCNCC2)s1` [Compound 050], the IC50 on HDAC1 is less than 10 nM; against HDAC2, 10 to 500 nM; against HDAC3 it was 10 to 500 nM.
As for `Nc1ccc(-c2ccco2)cc1NC(=O)c1cnc2cc(N3CCNCC3)ccc2c1` [Compound 024], in data set [1], the bioavailability worked out at 36.3%, the IV clearance is 3.5 mL/min/kg, the AUC turned out to be 8220 ng·h/mL and the peak level (Cmax) was 1000 ng/mL. In data set [1], the half-life is 4.4 h.
For the compound `Nc1ccc(-c2ccc(F)cc2)cc1NC(=O)c1ccc(N2CCNCC2)s1` [Compound 068], the figures for the IC50 at HDAC1, at HDAC2 and against HDAC3 were less than 10 nM, 10 to 500 nM and 10 to 500 nM, respectively.
Consider `Nc1ccc(-c2ccco2)cc1NC(=O)c1cnc(N2CCNCC2)cn1` [Compound 087], for which the figures for the IC50 at HDAC1, at HDAC2 and at HDAC3 were less than 10 nM, 10 to 500 nM and 10 to 500 nM, respectively.
Consider `Nc1ccc(-c2ccccc2)cc1NC(=O)c1cnc(N2CCNCC2)o1` [Compound 062], for which the IC50 on HDAC1, against HDAC2 and against HDAC3 was more than 500 nM in each case.
Turning to `Nc1ccc(-c2ccncc2)cc1NC(=O)c1ccc(N2CCNCC2)nc1` [Compound 010], in data set [1], the bioavailability stood at 12.6%, the IV clearance was 18.3 mL/min/kg, the AUC is 570 ng·h/mL and the Cmax stood at 164 ng/mL. For the same compound, the half-life in data set [1] is 4.7 h.
In the case of `Nc1ccc(-c2ccccc2)cc1NC(=O)c1cnc(N2CCNCC2)cn1` [Compound 085], the figures for the IC50 against HDAC1, against HDAC2 and against HDAC3 were less than 10 nM, 10 to 500 nM and 10 to 500 nM, respectively.
As for `CN1CCN(c2ccc(C(=O)Nc3cc(-c4ccccc4)ccc3N)nc2)CC1` [Compound 079], the IC50 was less than 10 nM against HDAC1, 10 to 500 nM on HDAC2 and 10 to 500 nM against HDAC3.
For the compound `Nc1ccc(-c2cccs2)cc1NC(=O)c1ccc(N2CCNCC2)s1` [Compound 033], in data set [1], the bioavailability worked out at 191%, the IV clearance is 10.8 mL/min/kg, the AUC was determined as 10700 ng·h/mL and the Cmax amounted to 614 ng/mL. Besides, the half-life in data set [1] is 13.7 h.
For `Nc1ccc(-c2ccc(F)cc2)cc1NC(=O)c1nc(N2CCNCC2)cs1` [Compound 058], the IC50 at HDAC1, against HDAC2 and on HDAC3 was 10 to 500 nM in each case.
With `CN1CCN(c2ccc(C(=O)Nc3cc(-c4ccco4)ccc3N)nc2)CC1` [Compound 082], the IC50 against HDAC1 is less than 10 nM; against HDAC2 it was 10 to 500 nM; against HDAC3, 10 to 500 nM.
On to `Nc1ccc(-c2ccccn2)cc1NC(=O)c1ccc(N2CCNCC2)nc1` [Compound 073], for which the IC50 at HDAC1 is 10 to 500 nM; against HDAC2 it was 10 to 500 nM; on HDAC3, more than 500 nM.
On to `Nc1ccc(-c2ccoc2)cc1NC(=O)c1ncc(N2CCNCC2)s1` [Compound 051], for which the results for the IC50 at HDAC1, against HDAC2 and on HDAC3 were less than 10 nM, less than 10 nM and 10 to 500 nM, respectively.
Turning to `CN1CCN(c2ccc(C(=O)Nc3cc(-c4cccs4)ccc3N)cn2)CC1` [Compound 071], the 50% inhibitory concentration (IC50) against HDAC2 and on HDAC3 was 10 to 500 nM throughout.
In the case of `Nc1ccc(-c2ccoc2)cc1NC(=O)c1nc(N2CCNCC2)cs1` [Compound 056], the IC50 at HDAC1 was 10 to 500 nM; on HDAC2, 10 to 500 nM; against HDAC3, more than 500 nM.
In the case of `Nc1ccc(-c2ccccc2)cc1NC(=O)c1ccc2nc(N3CCNCC3)ccc2c1` [Compound 002], in data set [1], the bioavailability came out at 86.1%, the IV clearance was 2 mL/min/kg, the AUC came out at 34600 ng·h/mL and the Cmax stood at 3750 ng/mL. The half-life in data set [1] is 5.9 h.
For `Nc1ccc(-c2ccoc2)cc1NC(=O)c1ccc2nc(N3CCNCC3)ccc2c1` [Compound 004], in data set [1], the bioavailability amounted to 90.8%, the IV clearance was 0.667 mL/min/kg, the AUC was found to be 91900 ng·h/mL and the Cmax is 10400 ng/mL. In addition, the half-life in data set [1] is 4.3 h.
Consider `Nc1ccc(-c2ccncc2)cc1NC(=O)c1ccc(N2CCNCC2)s1` [Compound 067], for which the IC50 was less than 10 nM at HDAC1, 10 to 500 nM against HDAC2 and 10 to 500 nM against HDAC3.
Consider `Nc1ccc(-c2ccncc2)cc1NC(=O)c1ncc(N2CCNCC2)s1` [Compound 052], for which the values for the IC50 on HDAC1, against HDAC2 and at HDAC3 were less than 10 nM, 10 to 500 nM and 10 to 500 nM, respectively.
On to `CN1CCN(c2cnc(C(=O)Nc3cc(-c4cccs4)ccc3N)cn2)CC1` [Compound 086], for which the IC50 against HDAC1 is less than 10 nM; against HDAC2 it was less than 10 nM; against HDAC3, 10 to 500 nM.
For the compound `Nc1ccc(-c2ccco2)cc1NC(=O)c1cnc(N2CCNCC2)o1` [Compound 061], the IC50 at HDAC1, against HDAC2 and on HDAC3 was more than 500 nM throughout.
For the compound `Nc1ccc(-c2ccco2)cc1NC(=O)c1ccc(N2CCNCC2)nc1` [Compound 008], in data set [1], the bioavailability was found to be 100%, the IV clearance is 14.3 mL/min/kg, the AUC was 5540 ng·h/mL and the Cmax stood at 536 ng/mL. For the same compound, the half-life in data set [1] was 5.6 h.
Turning to `Nc1ccc(-c2ccoc2)cc1NC(=O)c1ccc(N2CCNCC2)cc1` [Compound 014], in data set [1], the bioavailability is 97%, the IV clearance is 11 mL/min/kg, the AUC is 7100 ng·h/mL and the highest level (Cmax) was 727 ng/mL. Besides, in data set [1], the half-life was 4.9 h.
As to `Nc1ccc(-c2cccs2)cc1NC(=O)c1ccc(N2CCNCC2)cc1` [Compound 012], in data set [1], the bioavailability came out at 93.9%, the IV clearance is 8.83 mL/min/kg, the AUC amounted to 8190 ng·h/mL and the Cmax amounted to 534 ng/mL. For the same compound, in data set [1], the half-life was 7.7 h.
For `Nc1ccc(-c2ccccc2)cc1NC(=O)c1ncc(N2CCNCC2)s1` [Compound 049], the IC50 at HDAC2 and on HDAC3 was 10 to 500 nM throughout.
Consider `Nc1ccc(-c2ccco2)cc1NC(=O)c1ccc(N2CCNCC2)cc1` [Compound 013], for which, in data set [1], the bioavailability is 105%, the IV clearance is 13 mL/min/kg, the exposure (AUC) came out at 5780 ng·h/mL and the highest level (Cmax) was 425 ng/mL. The half-life in data set [1] is 8.1 h.
